Reference: patent US20150274719A1, “AMINO-SUBSTITUTED IMIDAZO[1,2-A]PYRIDINECARBOXAMIDES AND THEIR USE” (BAYER PHARMA AKTIENGESELLSCHAFT, priority 2012, published 2015)

Biological target: T1, recombinant guanylate cyclase reporter cell line (Rattus norvegicus, UniProt P19686+P20595)
T1 construct: expressed in transfected cells; host or cells: recombinant reporter cell line
T1 sequence (P19686 1-690): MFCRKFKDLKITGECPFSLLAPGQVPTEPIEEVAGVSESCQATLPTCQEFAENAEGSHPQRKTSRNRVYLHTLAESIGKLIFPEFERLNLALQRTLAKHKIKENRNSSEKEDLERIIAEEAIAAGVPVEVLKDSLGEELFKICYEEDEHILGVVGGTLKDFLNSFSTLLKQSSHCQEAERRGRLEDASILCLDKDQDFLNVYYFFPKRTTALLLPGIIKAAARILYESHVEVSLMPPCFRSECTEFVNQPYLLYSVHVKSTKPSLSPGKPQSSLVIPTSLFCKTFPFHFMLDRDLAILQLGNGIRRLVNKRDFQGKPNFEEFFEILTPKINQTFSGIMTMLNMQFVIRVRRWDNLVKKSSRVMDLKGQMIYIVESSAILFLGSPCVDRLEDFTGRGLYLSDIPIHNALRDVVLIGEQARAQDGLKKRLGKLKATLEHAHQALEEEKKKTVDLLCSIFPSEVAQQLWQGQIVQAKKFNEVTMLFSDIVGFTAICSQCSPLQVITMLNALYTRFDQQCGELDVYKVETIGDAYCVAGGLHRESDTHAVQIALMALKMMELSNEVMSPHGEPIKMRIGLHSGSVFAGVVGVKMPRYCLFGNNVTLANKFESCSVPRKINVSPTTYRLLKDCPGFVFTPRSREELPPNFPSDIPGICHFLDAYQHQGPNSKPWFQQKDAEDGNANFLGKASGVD
T1 sequence (P20595 1-619): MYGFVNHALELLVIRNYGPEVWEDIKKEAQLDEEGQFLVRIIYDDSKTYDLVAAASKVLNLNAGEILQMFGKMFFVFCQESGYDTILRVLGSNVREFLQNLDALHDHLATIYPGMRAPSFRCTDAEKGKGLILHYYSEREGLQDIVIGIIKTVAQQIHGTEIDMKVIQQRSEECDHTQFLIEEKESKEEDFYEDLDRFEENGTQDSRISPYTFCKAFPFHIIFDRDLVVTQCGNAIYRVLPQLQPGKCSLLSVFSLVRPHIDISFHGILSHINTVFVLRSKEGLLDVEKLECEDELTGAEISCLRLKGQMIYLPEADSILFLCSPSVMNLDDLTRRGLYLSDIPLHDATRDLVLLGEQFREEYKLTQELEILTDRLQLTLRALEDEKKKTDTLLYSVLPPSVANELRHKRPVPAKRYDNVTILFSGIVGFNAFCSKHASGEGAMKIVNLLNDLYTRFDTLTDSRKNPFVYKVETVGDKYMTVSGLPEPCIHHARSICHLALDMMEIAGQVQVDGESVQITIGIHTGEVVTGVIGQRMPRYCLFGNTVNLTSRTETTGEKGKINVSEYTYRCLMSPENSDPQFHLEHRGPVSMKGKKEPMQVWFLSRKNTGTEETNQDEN
Assay: Action on recombinant guanylate cyclase reporter cell line
Format: cell-based
Conditions: in some cases mean values from individual determinations
Procedure, shortened: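 Read-out: MEC (minimal effective concentration) in cells. Reporter line carries recombinant sGC. Some values are averages of single runs.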

SMILES	MEC (minimal effective concentration)
CCCC[C@H](CN1CCCC1)NC(=O)c1c(C)nc2c(OCc3c(F)cccc3F)cccn12 [Example 66, ent-8-[(2,6-difluorobenzyl)oxy]-2-methyl-N-[(2R)-1-(pyrrolidin-1-yl)hexan-2-yl]imidazo[1,2-a]-pyridine-3-carboxamide]	1.00 µM
CCCC[C@H](CN1CCN(C)CC1)NC(=O)c1c(C)nc2c(OCc3c(F)cccc3F)cccn12 [Example 67, ent-8-[(2,6-difluorobenzyl)oxy]-2-methyl-N-[(2R)-1-(4-methylpiperazin-1-yl)hexan-2-yl]imidazo[1,2-a]pyridine-3-carboxamide]	0.30 µM
CCCC[C@H](CN(C)C)NC(=O)c1c(C)nc2c(OCc3c(F)cccc3F)cccn12 [Example 68, ent-8-[(2,6-difluorobenzyl)oxy]-N-[(2R)-1-(dimethylamino)hexan-2-yl]-2-methylimidazo[1,2-a]-pyridine-3-carboxamide]	0.30 µM
CCCC[C@H](CN(CC)CC)NC(=O)c1c(C)nc2c(OCc3c(F)cccc3F)cccn12 [Example 69, ent-8-[(2R)-1-(diethylamino)hexan-2-yl]-8-[(2,6-difluorobenzyl)oxy]-2-methylimidazo[1,2-a]-pyridine-3-carboxamide]	1.00 µM
CCCC[C@H](CNCCOC)NC(=O)c1c(C)nc2c(OCc3c(F)cccc3F)cccn12 [Example 70, ent-8-[(2,6-difluorobenzyl)oxy]-N-{(2R)-1-[(2-methoxyethyl)amino]hexan-2-yl}-2-methylimidazo[1,2-a]pyridine-3-carboxamide]	1.00 µM
CCN1C2CCCC1CC(NC(=O)c1c(C)nc3c(OCc4c(F)cccc4F)cccn13)C2 (centres unmarked) [Example 71, 8-[(2,6-Difluorobenzyl)oxy]-N-(9-ethyl-9-azabicyclo[3.3.1]non-3-yl)-2-methylimidazo[1,2-a]-pyridine-3-carboxamide]	0.30 µM
Cc1nc2c(OCc3c(F)cccc3F)cccn2c1C(=O)NCC(C)(C)N [Example 72, N-(2-Amino-2-methylpropyl)-8-[(2,6-difluorobenzyl)oxy]-2-methylimidazo[1,2-a]pyridine-3-carboxamide]	0.30 µM
Cc1nc2c(OCc3c(F)cccc3F)cccn2c1C(=O)NCCNc1ccc(F)cc1 [Example 79, 8-[(2,6-difluorobenzyl)oxy]-N-{2-[(4-fluoro-phenyl)amino]ethyl}-2-methylimidazo[1,2-a]-pyridine-3-carboxamide]	1.00 µM
Cc1nc2c(OCc3c(F)cccc3F)cccn2c1C(=O)NC1CC2CCCC(C1)N2C (centres unmarked) [Example 90, 8-[(2,6-difluorobenzyl)oxy]-2-methyl-N-(9-methyl-9-azabicyclo[3.3.1]non-3-yl)imidazo[1,2-a]pyridine-3-carboxamide]	0.10 µM
Cc1nc2c(OCc3c(F)cccc3F)cccn2c1C(=O)NC1CC2CCC(C1)N2C (centres unmarked) [Example 91, 8-[(2,6-difluorobenzyl)oxy]-2-methyl-N-(8-methyl-8-azabicyclo[3.2.1]oct-3-yl)imidazo[1,2-a]pyridine-3-carboxamide]	1.00 µM
Cc1nc2c(OCc3c(F)cccc3F)cccn2c1C(=O)NC1CN2CCC1CC2 (centres unmarked) [Example 92, N-(1-azabicyclo[2.2.2]oct-3-yl)-8-[(2,6-difluorobenzyl)oxy]-2-methylimidazo[1,2-a]-pyridine-3-carboxamide]	0.30 µM

Other lines, results leading:

MEC (minimal effective concentration)	SMILES
0.20 µM	Cc1nc2c(OCc3c(F)cccc3F)cccn2c1C(=O)NC1CC(C)(C)NC(C)(C)C1 [Example 82, 8-[(2,6-Difluorobenzyl)oxy]-2-methyl-N-(2,2,6,6-tetramethylpiperidin-4-yl)imidazo[1,2-a]-pyridine-3-carboxamide]
0.10 µM	Cc1nc2c(OCc3c(F)cccc3F)cccn2c1C(=O)NC1CC(C)(C)N(C)C(C)(C)C1 [Example 83, 8-[(2,6-difluorobenzyl)oxy]-2-methyl-N-(1,2,2,6,6-pentamethylpiperidin-4-yl)imidazo[1,2-a]pyridine-3-carboxamide]
2.00 µM	Cc1nc2c(OCc3c(F)cccc3F)cccn2c1C(=O)NCCN(C)C [Example 86, 8-[(2,6-difluorobenzyl)oxy]-N-[2-(dimethyl-amino)ethyl]-2-methylimidazo[1,2-a]pyridine-3-carboxamide]
1.00 µM	Cc1nc2c(OCc3c(F)cccc3F)cccn2c1C(=O)NCCCN(C)C [Example 87, 8-[(2,6-difluorobenzyl)oxy]-N-[3-(dimethyl-amino)propyl]-2-methylimidazo[1,2-a]-pyridine-3-carboxamide]
1.00 µM	Cc1nc2c(OCc3c(F)cccc3F)cccn2c1C(=O)NCCN(C(C)C)C(C)C [Example 88, 8-[(2,6-difluorobenzyl)oxy]-N-[2-(diisopropyl-amino)ethyl]-2-methylimidazo[1,2-a]pyridine-3-carboxamide]
0.65 µM	Cc1nc2c(OCc3c(F)cccc3F)cccn2c1C(=O)NCCN1CCOCC1 [Example 89, 8-[(2,6-difluorobenzyl)oxy]-2-methyl-N-[2-(morpholin-4-yl)ethyl]imidazo[1,2-a]pyridine-3-carboxamide]
0.30 µM	Cc1cc(OCc2c(F)cccc2F)c2nc(C)c(C(=O)NCC(C)(C)NCC(F)(F)F)n2c1 [Example 94, 8-[(2,6-Difluorobenzyl)oxy]-2,6-dimethyl-N-{2-methyl-2-[(2,2,2-trifluoroethyl)amino]propyl}-imidazo[1,2-a]pyridine-3-carboxamide]
0.10 µM	[2H]C([2H])(Oc1cccn2c(C(=O)NC(CN)c3ccc(F)c(F)c3)c(C)nc12)c1c(F)cccc1F (stereo not drawn) [Example 97, ent-N-[2-Amino-1-(3,4-difluorophenyl)ethyl]-8-{[(2,6-difluorophenyl)(^2H2)methyl]oxy}-2-methylimidazo[1,2-a]pyridine-3-carboxamide]
1.00 µM	Cc1nc2c(OCc3ccccc3F)cccn2c1C(=O)NC(CN)c1ccc(F)c(F)c1 (stereo not drawn) [Example 98, ent-N-[2-Amino-1-(3,4-difluorophenyl)ethyl]-8-[(2-fluorobenzyl)oxy]-2-methylimidazo[1,2-a]-pyridine-3-carboxamide]
1.00 µM	Cc1nc2c(OCc3cccc(F)c3F)cccn2c1C(=O)NC(CN)c1ccc(F)c(F)c1 (centres unmarked) [Example 99]
0.30 µM	Cc1nc2c(OCc3c(F)ccc(F)c3F)cccn2c1C(=O)NC(CN)c1ccc(F)c(F)c1 (stereo not drawn) [Example 100, ent-N-[2-amino-1-(3,4-difluorophenyl)ethyl]-2-methyl-8-[(2,3,6-trifluorobenzyl)oxy]imidazo[1,2-a]pyridine-3-carboxamide]
1.00 µM	Cc1nc2c(OCc3c(F)cc(F)cc3F)cccn2c1C(=O)NC(CN)c1ccc(F)c(F)c1 (stereo not drawn) [Example 101, ent-N-[2-amino-1-(3,,4-difluorophenyl)ethyl]-2-methyl-8-[(2,4,6-trifluorobenzyl)oxy]imidazo[1,2-a]pyridine-3-carboxamide]
1.00 µM	Cc1nc2c(OCc3c(F)cccc3Cl)cccn2c1C(=O)NC(CN)c1ccc(F)c(F)c1 (stereo not drawn) [Example 102, ent-N-[2-amino-1-(3,4-difluorophenyl)ethyl]-8-[(2-chloro-6-fluorobenzyl)oxy]-2-methylimidazo[1,2-a]pyridine-3-carboxamide]
3.00 µM	Cc1nc2c(OCc3c(F)cccc3F)cccn2c1C(=O)NCC(C)(C)CN [Example 103, N-(3-amino-2,2-dimethylpropyl)-8-[(2,6-difluorobenzyl)oxy]-2-methylimidazo[1,2-a]-pyridine-3-carboxamide]
0.30 µM	Cc1nc2c(OCc3c(F)cccc3F)cc(Cl)cn2c1C(=O)NCCC(C)(C)N [Example 104, N-(3-Amino-3-methylbutyl)-6-chloro-8-[(2,6-difluorobenzyl)oxy]-2-methylimidazo[1,2-a]-pyridine-3-carboxamide]
